Reference: US11739098B2 (BRISTOL-MYERS SQUIBB COMPANY, priority 2017, dated 2023)
pIC50: −log10 of the molar value.

What was measured:
Type in all cases: cell-based
human TLR8 = target: T1, human TLR8 (Homo sapiens, UniProt Q9NR97); assay: TLR8 inhibition reporter assay (HEK-Blue cells, SEAP reporter, R848 stimulation); settings: HEK-Blue cells overexpressing human TLR8, SEAP reporter, R848 15.9 μM
T1 construct: host or cells: HEK-Blue cells (HEK293-derived reporter line)
T1 sequence (Q9NR97 27-1041): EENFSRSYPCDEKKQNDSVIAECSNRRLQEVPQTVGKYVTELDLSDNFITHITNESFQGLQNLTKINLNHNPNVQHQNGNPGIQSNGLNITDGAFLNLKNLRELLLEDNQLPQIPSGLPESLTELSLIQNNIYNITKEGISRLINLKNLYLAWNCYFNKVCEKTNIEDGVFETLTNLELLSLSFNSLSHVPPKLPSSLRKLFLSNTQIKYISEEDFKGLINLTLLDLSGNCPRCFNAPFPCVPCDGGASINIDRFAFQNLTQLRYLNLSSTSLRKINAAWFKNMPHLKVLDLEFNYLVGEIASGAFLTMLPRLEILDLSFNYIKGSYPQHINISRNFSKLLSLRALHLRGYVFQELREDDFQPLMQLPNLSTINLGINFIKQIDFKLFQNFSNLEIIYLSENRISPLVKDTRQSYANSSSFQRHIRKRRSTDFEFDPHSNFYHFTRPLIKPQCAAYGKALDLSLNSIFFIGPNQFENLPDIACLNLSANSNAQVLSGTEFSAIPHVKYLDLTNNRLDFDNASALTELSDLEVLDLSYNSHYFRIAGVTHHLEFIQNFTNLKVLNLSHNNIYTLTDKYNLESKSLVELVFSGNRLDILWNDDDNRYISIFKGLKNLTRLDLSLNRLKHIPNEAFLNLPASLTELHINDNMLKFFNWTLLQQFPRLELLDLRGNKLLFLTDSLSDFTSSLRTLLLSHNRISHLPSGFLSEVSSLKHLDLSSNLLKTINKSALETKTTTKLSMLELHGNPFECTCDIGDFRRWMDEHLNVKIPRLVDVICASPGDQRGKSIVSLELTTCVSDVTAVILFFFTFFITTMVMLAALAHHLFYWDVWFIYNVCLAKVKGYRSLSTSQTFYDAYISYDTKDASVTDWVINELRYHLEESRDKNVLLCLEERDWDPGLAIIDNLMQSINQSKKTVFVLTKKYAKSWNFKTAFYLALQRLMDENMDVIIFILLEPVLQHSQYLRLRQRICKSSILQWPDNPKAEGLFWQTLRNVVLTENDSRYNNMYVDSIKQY
Procedure: (§1) TLR7/8/9 Inhibition Reporter Assays
(§2) HEK-Blue™-cells (Invivogen) overexpressing human TLR7, TLR8 or TLR9 receptors were used for screening inhibitors of these receptors using an inducible SEAP (secreted embryonic alkaline phosphatase) reporter gene under the control of the IFN-β minimal promoter fused to five NF-κB and AP-1-binding sites. Briefly, cells are seeded into Greiner 384 well plates (15000 cells per well for TLR7, 20,000 for TLR8 and 25,000 for TLR9) and then treated with test compounds in DMSO to yield a final dose response concentration range of 0.05 nM-50 μM. After a 30 minute compound pre-treatment at room temperature, the cells are then stimulated with a TLR7 ligand (gardiquimod at a final concentration of 7.5 μM), TLR8 ligand (R848 at a final concentration of 15.9 μM) or TLR9 ligand (ODN2006 at a final concentration of 5 nM) to activate NF-κB and AP-1 which induce the production of SLAP After a 22 hour incubation at […], SLAP levels are determined with the addition of HLK-Blue™ Detection reagent (Invivogen), a cell culture medium that allows for detection of SLAP, according to manufacturer's specifications. The percent inhibition is determined as the […] in the HEK-Blue signal present in wells treated with agonist plus DMSO alone compared to wells treated with a known inhibitor.

human TLR7 = target: T2, human TLR7 (Homo sapiens, UniProt Q9NYK1); assay: TLR7 inhibition reporter assay (HEK-Blue cells, SEAP reporter, gardiquimod stimulation); settings: HEK-Blue cells overexpressing human TLR7, SEAP reporter, gardiquimod 7.5 μM
T2 construct: host or cells: HEK-Blue cells (HEK293-derived reporter line)
T2 sequence (Q9NYK1 27-1049): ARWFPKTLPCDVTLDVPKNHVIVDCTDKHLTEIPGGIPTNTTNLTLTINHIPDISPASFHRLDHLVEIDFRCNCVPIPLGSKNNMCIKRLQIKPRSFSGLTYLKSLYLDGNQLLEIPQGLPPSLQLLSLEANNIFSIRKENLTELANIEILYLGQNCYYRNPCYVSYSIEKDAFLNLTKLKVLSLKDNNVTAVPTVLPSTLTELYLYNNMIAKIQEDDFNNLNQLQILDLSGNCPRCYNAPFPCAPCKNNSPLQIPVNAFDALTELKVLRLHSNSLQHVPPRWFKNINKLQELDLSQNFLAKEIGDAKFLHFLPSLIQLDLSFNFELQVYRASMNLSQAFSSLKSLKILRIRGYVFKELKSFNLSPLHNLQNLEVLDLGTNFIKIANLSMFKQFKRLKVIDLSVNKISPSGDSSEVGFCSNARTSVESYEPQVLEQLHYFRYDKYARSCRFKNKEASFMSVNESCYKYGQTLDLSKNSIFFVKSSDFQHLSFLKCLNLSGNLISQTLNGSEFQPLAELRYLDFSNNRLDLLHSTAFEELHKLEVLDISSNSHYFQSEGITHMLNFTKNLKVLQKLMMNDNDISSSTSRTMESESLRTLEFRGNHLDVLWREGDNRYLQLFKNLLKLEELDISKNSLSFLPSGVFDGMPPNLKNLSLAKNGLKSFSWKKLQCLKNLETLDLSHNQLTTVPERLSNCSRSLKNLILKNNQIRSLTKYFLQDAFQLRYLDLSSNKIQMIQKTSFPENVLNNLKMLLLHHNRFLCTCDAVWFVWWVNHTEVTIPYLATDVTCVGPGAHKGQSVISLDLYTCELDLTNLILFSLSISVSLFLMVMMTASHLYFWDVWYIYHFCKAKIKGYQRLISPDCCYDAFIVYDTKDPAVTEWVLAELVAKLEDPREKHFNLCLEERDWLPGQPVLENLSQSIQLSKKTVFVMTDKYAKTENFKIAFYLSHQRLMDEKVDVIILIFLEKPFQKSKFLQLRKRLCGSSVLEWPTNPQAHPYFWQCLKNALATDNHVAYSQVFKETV
Procedure: as §1, §2

human TLR9 = target: T3, human TLR9 (Homo sapiens, UniProt Q9NR96); assay: TLR9 inhibition reporter assay (HEK-Blue cells, SEAP reporter, ODN2006 stimulation); settings: HEK-Blue cells overexpressing human TLR9, SEAP reporter, ODN2006 5 nM
T3 construct: host or cells: HEK-Blue cells (HEK293-derived reporter line)
T3 sequence (Q9NR96 26-1032): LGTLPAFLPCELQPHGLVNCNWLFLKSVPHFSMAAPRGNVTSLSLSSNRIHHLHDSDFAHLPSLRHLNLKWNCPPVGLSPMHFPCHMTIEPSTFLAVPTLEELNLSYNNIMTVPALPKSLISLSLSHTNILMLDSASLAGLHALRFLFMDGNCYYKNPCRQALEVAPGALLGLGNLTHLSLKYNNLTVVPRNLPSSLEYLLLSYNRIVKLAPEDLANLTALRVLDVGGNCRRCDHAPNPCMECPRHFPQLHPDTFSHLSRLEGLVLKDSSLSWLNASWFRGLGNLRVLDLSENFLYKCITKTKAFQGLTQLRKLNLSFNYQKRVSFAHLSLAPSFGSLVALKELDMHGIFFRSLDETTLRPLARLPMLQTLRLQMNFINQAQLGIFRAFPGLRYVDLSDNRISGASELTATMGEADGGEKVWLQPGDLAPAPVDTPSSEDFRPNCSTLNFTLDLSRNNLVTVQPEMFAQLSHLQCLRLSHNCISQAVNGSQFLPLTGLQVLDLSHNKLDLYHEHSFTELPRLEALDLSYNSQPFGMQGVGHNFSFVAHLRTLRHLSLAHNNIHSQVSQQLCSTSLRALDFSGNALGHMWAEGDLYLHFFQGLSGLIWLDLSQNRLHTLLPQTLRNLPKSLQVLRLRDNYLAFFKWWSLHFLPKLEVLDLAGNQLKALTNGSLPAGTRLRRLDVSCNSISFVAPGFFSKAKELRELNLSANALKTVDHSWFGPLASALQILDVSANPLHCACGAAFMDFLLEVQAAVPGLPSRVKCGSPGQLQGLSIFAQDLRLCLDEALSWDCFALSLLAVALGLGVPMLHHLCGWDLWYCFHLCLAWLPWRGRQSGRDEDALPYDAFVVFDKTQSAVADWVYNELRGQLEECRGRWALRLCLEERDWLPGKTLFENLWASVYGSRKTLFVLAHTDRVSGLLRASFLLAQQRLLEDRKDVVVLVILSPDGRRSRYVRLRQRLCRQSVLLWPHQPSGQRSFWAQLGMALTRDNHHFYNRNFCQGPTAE
Procedure: as §1, §2

SMILES	pIC50 (human TLR8)	pIC50 (human TLR7)	pIC50 (human TLR9)
CC(C)c1c(-c2ccnc3[nH]ncc23)[nH]c2ccc(C3CCN(Cc4ccncc4Cl)CC3)cc12 [Example 923, 4-(5-(1-((3-chloropyridin-4-yl)methyl)piperidin-4-yl)-3-isopropyl-1H-indol-2-yl)-1H-pyrazolo[3,4-b]pyridine]	6.00 to 7.00	6.00 to 7.00	–
Cc1c(-c2ccnc3[nH]nnc23)[nH]c2ccc(C3CCNCC3)cc12 [Example 233, 7-(3-methyl-5-(piperidin-4-yl)-1H-indol-2-yl)-3H-[1,2,3] triazolo[4,5-b]pyridine]	4.30 to 6.00	4.30 to 6.00	–
CCc1c(-c2cccc3c2cnn3C)[nH]c2ccc(C3CCN(C(=O)CN4CCCN(C)CC4)CC3)cc12 [Example 521, 1-(4-(3-ethyl-2-(1-methyl-1H-indazol-4-yl)-1H-indol-5-yl)piperidin-1-yl)-2-(4-methyl-1,4-diazepan-1-yl)ethan-1-one]	< 4.30	–	4.30 to 6.00
Cc1cn2cc(-c3[nH]c4ccc(C5CCNCC5)cc4c3CC(F)F)ccc2n1 [Example 129, 6-(3-(2,2-difluoroethyl)-5-(piperidin-4-yl)-1H-indol-2-yl)-2-methylimidazo[1,2-a]pyridine]	–	> 7.00	6.00 to 7.00
Cc1cc(-c2[nH]c3ccc(C4CCN(C(=O)C[C@H](C)O)CC4)cc3c2C(C)C)cn2nnnc12 [Example 593, (S)-3-hydroxy-1-(4-(3-isopropyl-2-(8-methyltetrazolo[1,5-a]pyridin-6-yl)-1H-indol-5-yl)piperidin-1-yl)butan-1-one]	> 7.00	> 7.00	–
CNCCN1CCC(c2ccc3[nH]c(-c4cnc5ccccc5c4)c(C)c3c2)CC1 [Example 664, N-methyl-2-(4-(3-methyl-2-(quinolin-3-yl)-1H-indol-5-yl)piperidin-1-yl)ethan-1-amine]	< 5.51	–	6.00 to 7.00
COC(=O)C1CC(N2CCC(c3ccc4[nH]c(-c5ccnc6[nH]ncc56)c(C(C)C)c4c3)CC2)CCN1 (centres unmarked) [Example 825, methyl 4-(3-isopropyl-2-(1H-pyrazolo[3,4-b]pyridin-4-yl)-1H-indol-5-yl)-[1,4′-bipiperidine]-2′-carboxylate]	> 7.00	–	6.00 to 7.00

More lines, now with the values ahead:

pIC50 (human TLR8)	pIC50 (human TLR7)	pIC50 (human TLR9)	SMILES
4.30 to 6.00	4.30 to 6.00	4.30 to 6.00	CC(C)c1c(-c2ccnc3c2NC(=O)CO3)[nH]c2ccc(C3CCNCC3)cc12 [Example 68, 8-(3-isopropyl-5-(piperidin-4-yl)-1H-indol-2-yl)-1H-pyrido[2,3-b][1,4]oxazin-2(3H)-one]
> 7.00	–	4.30 to 6.00	COc1cc(-c2[nH]c3ccc(C4CCN(CCS(C)(=O)=O)CC4)cc3c2C(C)C)cn2ccnc12 [Example 801, 6-(3-isopropyl-5-(1-(2-(methylsulfonyl)ethyl)piperidin-4-yl)-1H-indol-2-yl)-8-methoxyimidazo[1,2-a]pyridine]
> 7.00	–	4.30 to 6.00	COc1cc(-c2[nH]c3ccc(C4CCNCC4)cc3c2C(C)C)cn2cc(C(=O)N(C)C)nc12 [Example 263, 6-(3-isopropyl-5-(piperidin-4-yl)-1H-indol-2-yl)-8-methoxy-N,N-dimethylimidazo[1,2-a]pyridine-2-carboxamide]
< 5.51	–	6.00 to 7.00	Cc1c(-c2ncnc3c2cnn3C)[nH]c2ccc(C3CCN(C4CCN(C(C)C)CC4)CC3)cc12 [Example 818, 4-(5-(1′-isopropyl-[1,4′-bipiperidin]-4-yl)-3-methyl-1H-indol-2-yl)-1-methyl-1H-pyrazolo[3,4-d]pyrimidine]
–	> 7.00	6.00 to 7.00	CNC(=O)CN1CCC(c2ccc3[nH]c(-c4ccc5nc(C)cn5c4)c(CC(F)F)c3c2)CC1 [Example 417, 2-(4-(3-(2,2-difluoroethyl)-2-(2-methylimidazo[1,2-a]pyridin-6-yl)-1H-indol-5-yl)piperidin-1-yl)-N-methylacetamide]
–	> 7.00	6.00 to 7.00	CNCC(=O)N1CCC(c2ccc3[nH]c(-c4ccc5nc(C)cn5c4)c(CC(F)F)c3c2)CC1 [Example 550, 1-(4-(3-(2,2-difluoroethyl)-2-(2-methylimidazo[1,2-a]pyridin-6-yl)-1H-indol-5-yl)piperidin-1-yl)-2-(methylamino)ethan-1-one]
6.00 to 7.00	> 7.00	–	Cc1c(-c2[nH]c3ccc(C4CCNCC4)cc3c2C(C)C)ccc2nccn12 [Example 111, 6-(3-isopropyl-5-(piperidin-4-yl)-1H-indol-2-yl)-5-methylimidazo[1,2-a]pyridine]
